Laboratory results taken from patent US20240374626A1, “METHODS OF ENHANCING MILK PRODUCTION IN LACTATING MAMMALIAN SUBJECTS” (priority 2023, published 2024).

Test system: HC11 cells
Assay: Milk production markers in differentiated HC11 (milk domes, Csn2 RT-qPCR, CSN2 WB, PLIN2 ICC)
Assay type: cell-based, mouse
Details: HC11, doxorubicin 50 nM, differentiated
Experimental: The HC11 cell line was obtained from American Type Culture Collection (ATCC) and routinely checked for mycoplasma (Mycoplasma PCR kit, ABM, G238). Undifferentiated HC11 cells were cultured in growing medium (RPMI-1640; Thermo Fisher Scientific, 72400047), supplemented with 10% FBS, 5 μg/ml insulin (Millipore-Sigma, 16634), 10 ng/ml epidermal growth factor (EGF; Preprotech, AF-100-15) and 1× AntiAnti (Thermo Fisher Scientific, 15240112) at 37° C. with 5% CO2. Cells were grown to confluency and maintained in growing medium for 2 days, until they became competent. Competent HC11 cells were primed for differentiation by culturing them in priming medium [RPMI-1640 supplemented with 5 μg/ml insulin, 1 μM dexamethasone (Millipore-Sigma, D4902-1 G) and 1× Anti-Anti] for 24 h at 37° C. with 5% CO2. To induce differentiation, primed HC11 cells were cultured in DIP Medium [RPMI-1640, supplemented with 10% FBS, 5 μg/ml insulin, 1 μM dexamethasone, 1× anti-anti and 3 μg/ml Prolactin (NHPP, oPRL-21)] at 37° C. with 5% CO2.
[…] Drugs were maintained through the differentiation process and added with every change of media.
Whole cell lysates were prepared using 1×NP40 lysis buffer (Thermo Fisher Scientific, FNN0021) supplemented with Pierce Protease and Phosphatase inhibitors (Thermo Fisher Scientific, A32959). Cells were washed with ice-cold PBS (GIBCO, 14190136) and lysed direct in buffer and kept at 4° C. rocking at 70 rpm for 30 min. Lysed cells were collected and centrifuged at 12,000 rpm at 4° C. for 15 min. Protein concentration was quantified using Qubit 4 fluorometer (Thermo Fisher, Q33238). Samples were resolved by SDS page and transferred to polyvinylidene difluoride (PVDF, Millipore-Sigma, IPVH00010) for 60 min at 250 mA. Immunoblots were blocked for 1 h at room temperature using either 5% non-fat milk or 5% BSA TBST. Primary antibodies [anti-GAPDH (SCBT, sc-365062), anti-Actin (SCBT, sc-47778), anti-Cyclin B1 (SCBT, sc-245), anti-Cyclin E1 (Millipore-Sigma, SAB4503516) and anti-CSN2 (ABclonal, A12749)] were incubated overnight at 4° C. in a rocker. HRP-conjugated secondary antibodies ([…]) were used for 1 h at room temperature. Immunoblots were developed using Clarity ECL (Bio-Rad), detected using a Bio-Rad ChemiDoc MP Image, and quantified using ImageJ.
HC11 cells were fixed using ice-cold MeOH for 10 min. After washing with 1×PBS, cells were incubated for 1 h at room temperature with primary antibodies [anti-γH2AX (SCBT, sc-517348), anti-pATR (Genetex, GTX128145), anti-PLIN2 (generously provided by Jim McManaman)] in a humid incubation chamber. After incubation, cells were washed three times using 1×PBS and incubated for 1 h at room temperature in darkness using corresponding Alexa Fluor AffiniPure secondary antibodies (Jackson ImmunoResearch) and Phalloidin-iFluor 488 Reagent (Abcam, ab176753) when indicated. Cells were washed three times using 1×PBS and incubated with Hoechst 33342 (AnaSpec, AS-83218) for 10 min. Cells were mounted using fluoromount-G (Southern Biotech, 0100-01) and visualized using Zeiss Axio Imager Microscope. Integrated density of PLIN2, nuclear γH2AX and nuclear pATR was quantify using ImageJ.
For RNA isolation from FACS purified populations, mammary gland cell suspensions were blocked using Mouse BD Fc Block™ (BD Biosciences) for 10 min. Cells were subsequently resuspended on 1×PBS at a density of 10^7 cells/ml and stained with the following antibodies for 30 min on ice: anti-CD24 PE (Stem Cell Technologies, 60099PE.1), anti-CD29 PE-Cy7 (BioLegend, 102222), anti-CD45-APC (BioLegend,105826), Ter119-APC (BD Biosciences, 561033), CD31-ACP (BD Biosciences, 551262). Propidium iodide at a final concentration of 0.5 μg/ml was used for the discrimination of dead cells. Stromal, basal and luminal mammary populations were sorted using a BD FACS Aria II Cell Sorter. […]

Structure (SMILES): COc1cccc2c1C(=O)c1c(O)c3c(c(O)c1C2=O)C[C@@](O)(C(=O)CO)C[C@@H]3O[C@H]1C[C@H](N)[C@H](O)[C@H](C)O1 [doxorubicin]
- CSN2, WB: increase
